Reference: ChEMBL document CHEMBL4351025, “Indole-nitroimidazole conjugates as efficient manipulators to decrease the genes expression of methicillin-resistant Staphylococcus aureus” (Eur J Med Chem, 2019)
Converted amounts (≈) assume the structure as drawn. The source made the active and inactive calls. The rule behind the calls is not given here.

How the values were obtained:
[1] = test system: Escherichia coli; test: Antibacterial activity against Escherichia coli incubated for 24 hrs by two fold serial dilution method; type: functional
[2] = test system: Acinetobacter baumannii; test: Antibacterial activity against Acinetobacter baumannii incubated for 24 hrs by two fold serial dilution method; type: functional
[3] = test system: Staphylococcus aureus; test: Antibacterial activity against methicillin-resistant Staphylococcus aureus N315 incubated for 24 hrs by two fold serial dilution method; type: functional; settings: N315, 24 h
[4] = test system: Enterococcus faecalis; test: Antibacterial activity against Enterococcus faecalis incubated for 24 hrs by two fold serial dilution method; type: functional
[5] = test system: Staphylococcus aureus; test: Antibacterial activity against Staphylococcus aureus ATCC 29213 incubated for 24 hrs by two fold serial dilution method; type: functional; settings: ATCC 29213, 24 h
[6] = test system: Pseudomonas aeruginosa; test: Antibacterial activity against Pseudomonas aeruginosa incubated for 24 hrs by two fold serial dilution method; type: functional
[7] = test system: Klebsiella pneumoniae; test: Antibacterial activity against Klebsiella pneumoniae incubated for 24 hrs by two fold serial dilution method; type: functional
[8] = test system: DNA; test: Binding affinity to methicillin-resistant Staphylococcus aureus N315 DNA by neutral red dye based UV-visible spectrophotometric method; type: nucleic-acid assay; settings: Staphylococcus aureus subsp. aureus N315
[9] = test system: Staphylococcus aureus; test: Antibacterial activity against methicillin-resistant Staphylococcus aureus N315 assessed as reduction in FemB gene expression incubated for 3 hrs by qRT-PCR analysis; type: functional, organism-based
[10] = target: T1, Albumin (Homo sapiens, UniProt P02768); test: Binding affinity to HSA assessed as effective quenching constant at 300 K by spectrofluorimetric based Stern-Volmer method; type: ADME; settings: isolated protein
[11] = target: T1, Albumin; test: Binding affinity to HSA assessed as effective quenching constant at 313 K by spectrofluorimetric based Stern-Volmer method; type: ADME; settings: isolated protein
[12] = target: T1, Albumin; test: Binding affinity to HSA assessed as Stem-Volmer quenching constant at 300 K by spectrofluorimetric analysis; type: ADME; settings: isolated protein
[13] = test system: Staphylococcus aureus; test: Induction of membrane permeabilization in methicillin-resistant Staphylococcus aureus N315 assessed as increase in fluorescence intensity at 12 times MIC measured within 70 mins by propidium iodide staining based fluorescence assay; type: functional, organism-based
[14] = target: T1, Albumin; test: Binding affinity to HSA assessed as Stem-Volmer quenching constant at 290 K by spectrofluorimetric analysis; type: ADME; settings: isolated protein
[15] = test system: DNA; test: Binding affinity to methicillin-resistant Staphylococcus aureus DNA assessed as reduction in neutral red binding to DNA by UV-visible spectrophotometric method; type: nucleic-acid assay
[16] = target: T1, Albumin; test: Binding affinity to HSA assessed as quenching constant at 290 K by spectrofluorimetric analysis; type: ADME; settings: isolated protein
[17] = target: T1, Albumin; test: Ratio of binding affinity for HSA assessed as binding constant at 298K in presence of Ca2+ ion to binding affinity to HSA at 298K by spectrofluorimetric based Scatchard method; type: ADME; settings: isolated protein
[18] = target: T1, Albumin; test: Binding affinity to HSA assessed as quenching constant at 300 K by spectrofluorimetric analysis; type: ADME; settings: isolated protein
[19] = test system: Staphylococcus aureus; test: Antibacterial activity against methicillin-resistant Staphylococcus aureus N315 assessed as reduction in MecA gene expression incubated for 3 hrs by qRT-PCR analysis; type: functional, organism-based
[20] = target: T1, Albumin; test: Binding affinity to HSA assessed as binding constant at 290 K by spectrofluorimetric based Scatchard method; type: ADME; settings: isolated protein
[21] = test system: DNA; test: Binding affinity to methicillin-resistant Staphylococcus aureus N315 DNA assessed as hyperchromic effect by neutral red dye based UV-visible spectrophotometric method; type: nucleic-acid assay; settings: Staphylococcus aureus subsp. aureus N315
[22] = target: T1, Albumin; test: Ratio of binding affinity for HSA assessed as binding constant at 298K in presence of Mg2+ ion to binding affinity to HSA at 298K by spectrofluorimetric based Scatchard method; type: ADME; settings: isolated protein
[23] = test system: Staphylococcus aureus; test: Antibacterial activity against methicillin-resistant Staphylococcus aureus N315 at 0.5 times MIC measured over 6 passages; type: functional, organism-based
[24] = target: T1, Albumin; test: Binding affinity to HSA assessed as binding constant at 313 K by spectrofluorimetric based Scatchard method; type: ADME; settings: isolated protein
[25] = target: T1, Albumin; test: Binding affinity to HSA assessed as quenching constant at 313 K by spectrofluorimetric analysis; type: ADME; settings: isolated protein
[26] = Cytotoxicity activity against human BEAS2B cells assessed as cell viability at 64 ug/ml incubated for 24 hrs by MTT assay relative to control; type: cell-based; settings: BEAS-2B cells, read-out: Activity
[27] = target: T1, Albumin; test: Binding affinity to HSA assessed as Stem-Volmer quenching constant at 313 K by spectrofluorimetric analysis; type: ADME; settings: isolated protein
[28] = Cytotoxicity activity against human A549 cells assessed as cell viability at 2 to 64 ug/ml incubated for 24 hrs by MTT assay relative to control; type: cell-based; settings: read-out: Activity
[29] = target: T1, Albumin; test: Binding affinity to HSA assessed as binding constant at 298K in presence of Mg2+ ion by spectrofluorimetric based Scatchard method; type: ADME; settings: isolated protein
[30] = target: T1, Albumin; test: Binding affinity to HSA assessed as binding constant at 298K in presence of Ca2+ ion by spectrofluorimetric based Scatchard method; type: ADME; settings: isolated protein
[31] = test system: Staphylococcus aureus; test: Antibacterial activity against methicillin-resistant Staphylococcus aureus N315 assessed as reduction in GyrB gene expression incubated for 3 hrs by qRT-PCR analysis; type: functional, organism-based
[32] = target: T1, Albumin; test: Binding affinity to HSA assessed as binding constant at 298K by spectrofluorimetric based Scatchard method; type: ADME; settings: isolated protein
[33] = target: T1, Albumin; test: Binding affinity to HSA assessed as binding constant at 300 K by spectrofluorimetric based Scatchard method; type: ADME; settings: isolated protein
[34] = target: T1, Albumin; test: Binding affinity to HSA assessed as effective quenching constant at 290 K by spectrofluorimetric based Stern-Volmer method; type: ADME; settings: isolated protein
[35] = test system: Enterococcus faecalis; test: Potency index, ratio of MIC for norfloxacin to test compound MIC for antibacterial activity against Enterococcus faecalis; type: functional

T1 sequence (P02768 whole entry): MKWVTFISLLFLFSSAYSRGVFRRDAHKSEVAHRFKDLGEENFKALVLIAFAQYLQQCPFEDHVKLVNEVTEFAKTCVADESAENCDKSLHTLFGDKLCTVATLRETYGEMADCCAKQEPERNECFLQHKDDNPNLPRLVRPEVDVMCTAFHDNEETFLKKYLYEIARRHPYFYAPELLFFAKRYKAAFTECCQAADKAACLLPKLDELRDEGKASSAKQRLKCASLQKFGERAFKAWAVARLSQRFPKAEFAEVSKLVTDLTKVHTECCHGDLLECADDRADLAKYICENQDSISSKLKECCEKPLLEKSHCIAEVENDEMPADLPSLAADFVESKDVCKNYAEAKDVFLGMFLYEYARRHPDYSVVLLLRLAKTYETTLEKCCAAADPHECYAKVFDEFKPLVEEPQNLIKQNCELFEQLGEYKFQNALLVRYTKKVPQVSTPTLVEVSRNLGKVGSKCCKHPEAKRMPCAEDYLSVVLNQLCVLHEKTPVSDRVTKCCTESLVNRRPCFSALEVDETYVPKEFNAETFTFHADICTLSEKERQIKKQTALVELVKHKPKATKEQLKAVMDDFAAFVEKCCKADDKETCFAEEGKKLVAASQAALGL

SMILES: C=CCn1cc(/C=C(/C(C)=O)n2cc([N+](=O)[O-])nc2C)c2ccccc21
- MIC [1]: 32 µg/mL (≈ 91.3 µM)
- MIC [2]: 16 µg/mL (≈ 45.7 µM)
- MIC [3]: 32 µg/mL (≈ 91.3 µM)
- MIC [4]: 64 µg/mL (≈ 183 µM)
- MIC [5]: 4 µg/mL (≈ 11.4 µM)
- MIC [6]: 16 µg/mL (≈ 45.7 µM)
- MIC [7]: 32 µg/mL (≈ 91.3 µM)

SMILES: CC(=O)/C(=C/c1cn(CC(=O)N2CCN(Cc3ccc(Cl)cc3Cl)CC2)c2ccccc12)n1cc([N+](=O)[O-])nc1C
- MIC [1]: 512 µg/mL (≈ 860 µM)
- MIC [2]: 256 µg/mL (≈ 430 µM)
- MIC [3]: 64 µg/mL (≈ 107 µM)
- MIC [4]: 128 µg/mL (≈ 215 µM)
- MIC [5]: 256 µg/mL (≈ 430 µM)
- MIC [6]: 256 µg/mL (≈ 430 µM)
- MIC [7]: 128 µg/mL (≈ 215 µM)

SMILES: CC(=O)/C(=C/c1cn(CC(=O)N2CCCCC2)c2cc(Cl)ccc12)n1cc([N+](=O)[O-])nc1C
- MIC [1]: 64 µg/mL (≈ 136 µM)
- MIC [2]: 512 µg/mL (≈ 1090 µM)
- MIC [3]: 64 µg/mL (≈ 136 µM)
- MIC [4]: 4 µg/mL (≈ 8.51 µM)
- MIC [5]: 512 µg/mL (≈ 1090 µM)
- MIC [6]: 256 µg/mL (≈ 545 µM)
- MIC [7]: 64 µg/mL (≈ 136 µM)

SMILES: CC(=O)/C(=C/c1cn(CC(=O)N2CCN(Cc3ccc(F)cc3)CC2)c2cc(C)ccc12)n1cc([N+](=O)[O-])nc1C
- MIC [1]: 512 µg/mL (≈ 917 µM)
- MIC [2]: 512 µg/mL (≈ 917 µM)
- MIC [3]: 2 µg/mL (≈ 3.58 µM)
- MIC [4]: 64 µg/mL (≈ 115 µM)
- MIC [5]: 512 µg/mL (≈ 917 µM)
- MIC [6]: 128 µg/mL (≈ 229 µM)
- MIC [7]: 512 µg/mL (≈ 917 µM)

SMILES: CC(=O)/C(=C/c1cn(CC(=O)N2CCCCC2)c2ccccc12)n1cc([N+](=O)[O-])nc1C
- Activity [8]: Dose-dependent effect
- K [8]: 3.45 ×10⁵ L/mol
- Activity [9]: Active
- Kq [10]: 79800 M⁻¹
- Kq [11]: 56900 M⁻¹
- KSV [12]: 7.63 ×10⁴ L/mol
- MIC [1]: 1 µg/mL (≈ 2.3 µM)
- Activity [13]: Active
- KSV [14]: 8.14 ×10⁴ L/mol
- Activity [15]: Active
- Kq [16]: 1.27 ×10¹³ L/mol/s
- MIC [2]: 128 µg/mL (≈ 294 µM)
- Ratio [17]: 124%
- MIC [3]: 1 µg/mL (≈ 2.3 µM)
- Kq [18]: 1.19 ×10¹³ L/mol/s
- Activity [19]: Active
- MIC [4]: 32 µg/mL (≈ 73.5 µM)
- Kb [20]: 5.88 ×10⁴ L/mol
- Activity [21]: Active
- Ratio [22]: 103%
- Activity [23]: Active
- Kb [24]: 4.95 ×10⁴ L/mol
- Kq [25]: 0.99 ×10¹³ L/mol/s
- viability at 24 h, 64 ug/ml [26]: 74%
- KSV [27]: 6.35 ×10⁴ L/mol
- viability at 24 h [28]: > 75%
- MIC [5]: 128 µg/mL (≈ 294 µM)
- Kb [29]: 4.766 ×10⁴ L/mol
- Kb [30]: 5.729 ×10⁴ L/mol
- MIC [6]: 128 µg/mL (≈ 294 µM)
- Activity [31]: Active
- Kb [32]: 4.624 ×10⁴ L/mol
- Kb [33]: 5.73 ×10⁴ L/mol
- MIC [7]: 8 µg/mL (≈ 18.4 µM)
- Kq [34]: 132000 M⁻¹

SMILES: CC(=O)/C(=C/c1cn(CC(=O)N(C2CCCCC2)C2CCCCC2)c2ccccc12)n1cc([N+](=O)[O-])nc1C
- MIC [1]: 32 µg/mL (≈ 60.2 µM)
- MIC [2]: 512 µg/mL (≈ 963 µM)
- MIC [3]: 2 µg/mL (≈ 3.76 µM)
- MIC [4]: 128 µg/mL (≈ 241 µM)
- MIC [5]: 512 µg/mL (≈ 963 µM)
- MIC [6]: 512 µg/mL (≈ 963 µM)
- MIC [7]: 8 µg/mL (≈ 15 µM)

SMILES: CC(=O)/C(=C/c1cn(CC(=O)N(C)c2ccccc2)c2ccccc12)n1cc([N+](=O)[O-])nc1C
- MIC [1]: 32 µg/mL (≈ 69.9 µM)
- MIC [2]: 128 µg/mL (≈ 280 µM)
- MIC [3]: 1 µg/mL (≈ 2.19 µM)
- MIC [4]: 64 µg/mL (≈ 140 µM)
- MIC [5]: 128 µg/mL (≈ 280 µM)
- MIC [6]: 128 µg/mL (≈ 280 µM)
- MIC [7]: 32 µg/mL (≈ 69.9 µM)

SMILES: CC(=O)Cn1cc(/C=C(/C(C)=O)n2cc([N+](=O)[O-])nc2C)c2ccccc21
- MIC [1]: 8 µg/mL (≈ 21.8 µM)
- MIC [2]: 128 µg/mL (≈ 349 µM)
- MIC [3]: 0.5 µg/mL (≈ 1.36 µM)
- MIC [4]: 16 µg/mL (≈ 43.7 µM)
- MIC [5]: 256 µg/mL (≈ 699 µM)
- MIC [6]: 512 µg/mL (≈ 1400 µM)
- MIC [7]: 2 µg/mL (≈ 5.46 µM)

SMILES: COc1cccc2c1C(=O)c1c(O)c3c(c(O)c1C2=O)C[C@@](O)(C(=O)CO)C[C@@H]3O[C@H]1C[C@H](N)[C@H](O)[C@H](C)O1 [DOXORUBICIN]
- viability at 24 h [28]: < 75%

SMILES: CC(=O)/C(=C/c1cn(CC(=O)N2CCN(Cc3ccc(F)cc3)CC2)c2ccccc12)n1cc([N+](=O)[O-])nc1C
- Ratio [35]: 2
- MIC [1]: 16 µg/mL (≈ 29.4 µM)
- MIC [2]: 32 µg/mL (≈ 58.8 µM)
- MIC [3]: 32 µg/mL (≈ 58.8 µM)
- MIC [4]: 2 µg/mL (≈ 3.67 µM)
- MIC [5]: 8 µg/mL (≈ 14.7 µM)
- MIC [6]: 32 µg/mL (≈ 58.8 µM)
- MIC [7]: 16 µg/mL (≈ 29.4 µM)
